Numbers after ± are expanded uncertainties.
Settings: 101.33 kPa, Liquid, Vibrating tube method

| Compound | mass density (293.15 K) [kg/m3] | mass density (313.15 K) [kg/m3] |
| --- | --- | --- |
| CCCCOCCO [2-butoxyethan-1-ol] | 900.64 ± 0.15 | 883.8 ± 0.15 |
| CCCCCCCC [octane] | 702.64 ± 0.32 | 686.39 ± 0.32 |

Source: the NIST ThermoML archive (doi:10.1016/j.fluid.2015.04.019)
